Where two headings read alike, the source gives them in different places.
How the values were obtained:
EPAC1 [1] = molecular target: T1, EPAC1 (Homo sapiens (Human), UniProt O95398); assay: biochemical
EPAC1 [2] = molecular target: T1, EPAC1; conditions: for IC50: read-out: Rap 1b-bGDP EPAC1 IC50
EPAC2 [3] = molecular target: T2, EPAC2 (Mus musculus (Mouse), UniProt Q9EQZ6); assay: biochemical; conditions: Rap1b-bGDP EPAC2 IC50, apparent IC50, EPAC2 GEF activity, 20 μM cAMP
Experimental: (§3) In Vitro Evaluation of EPAC2 Inhibition.
(§4) In vitro EPAC GEF activity was acquired as previously described (Zhu et al., Sci. Rep. (2015) 5:9344). Briefly, the assay was performed using 500 nM Rap1b-BODIPY-GDP and 200 nM EPAC proteins in buffer containing 50 mM Tris-HCl pH 7.5, 50 mM NaCl, 5 mM MgCl2, 1 mM DTT, 50 mM GDP and the indicated concentrations of test compounds at room temperature using half-area 96-well plates (Corning Costar 3915). The exchange reaction was monitored using a Spectramax M2 Plate Reader (Molecular Devices) with the excitation/emission wavelengths set at 485/515 nm. The reaction rate constant (kobs) was determined by globally fitting the experimental data to a single exponential equation.

R. australia [4] = conditions: 10 mg/kg IP daily, lethal dose of R. australia
Experimental: WT C57BL/6 mice were treated with vehicle or ESI-09 (10 mg/kg, IP) daily. Five days after the treatment, mice were challenged with lethal dose of R. australia and continued ESI-09 daily treatment.

EPAC2 [5] = molecular target: T2, EPAC2; conditions: for Relative GEF activity, EPAC2-mediated Rap1b-bGDP exchange: in the presence of 20 μM cAMP, figure; for IC50: read-out: Rap1b-bGDP EPAC2 IC50, apparent IC50, EPAC2 GEF activity, 20 μM cAMP
Experimental: as §3, §4

[6] = test system: OVA-specific IgG1 antibodies; conditions: mouse, in vivo
[7] = mice, single IP injection 10 mg/kg
Experimental: In vivo pharmacokinetic studies were performed in four week old female C57BL6/N mice.

pSTAT3 Y705 = conditions: brain slices, basal state and in response to leptin stimulation
Experimental: (§1) To explore the feasibility of increasing leptin sensitivity by targeting Epac1 using small molecules, organotypic brain slice cultures were prepared from 11-day old wild-type C57BL/6 mice. After 7 days ex vivo culture, treatment of the brain tissue with the Epac specific antagonist ESI-09 led to an enhanced pSTAT3 Y705 level both at the basal state and in response to leptin stimulation. […] These pharmacological data are in agreement with results obtained using Epac1 KO mice and further confirm that inhibition of Epac1 enhances leptin signaling in the hypothalamus. To further investigate the therapeutic potential of this small molecule, wild-type mice were with ESI-09 (50 mg/kg) or vehicle (corn oil) by oral gavage for 3 weeks.

leptin = conditions: wild-type mice, 50 mg/kg oral gavage for 3 weeks, relative to vehicle
Experimental: as §1

R. australia [8] = conditions: HUVEC cells, vs vehicle
EPAC1 [9] = molecular target: T1, EPAC1; conditions: read-out: IC50 in inhibiting EPAC1; reference compound, Zhu et al., Sci. Rep. (2015); cited from earlier work
EPAC1 [10] = molecular target: T1, EPAC1; conditions: at 100 μM
Text: (§2) Given the physiological and pathophysiological significance of EPAC proteins, developing pharmacological EPAC modulators has attracted more and more attention. Most EPAC agonists are derivatives of cAMP, while non-cyclic nucleotide ligands usually display EPAC inhibitory activities. Cheng group developed a sensitive and robust fluorescence-based high throughput (HTS) assay, (Tsalkova et al., PloS one, (2012) 7:e30441) and discovered a series of non-cyclic nucleotide EPAC inhibitors (Tsalkova et al., Proc. Natl. Acad. Sci. U.S.A., (2012) 109:18613-18).

EPAC2 [11] = conditions: read-out: IC50 against EPAC2
Text: as §2

[12] = Rap 1b-bGDP EPAC1 IC50, apparent IC50, EPAC1 GEF activity, 20 μM cAMP
[13] = apparent IC50, EPAC1 GEF activity, 20 μM cAMP

With N#CC(=NNc1cc(Cl)cc(C(F)(F)F)c1)C(=O)c1cc(-c2ccco2)on1 [Compound 26, N-(3-Chloro-5-(trifluoromethyl)phenyl)-2-(5-(furan-2-yl)isoxazol-3-yl)-2-oxoacetohydrazonoyl cyanide] the IC50 (EPAC1 [1]; Rap 1b-bGDP EPAC1 IC50) was 3.6 ± 0.2 µM, the “Rap 1b-bGDP EPAC1 IC50” value (EPAC1 [2]) was “low micromolar range” and the “Relative GEF activity, EPAC1-mediated Rap1b-bGDP exchange” value (EPAC1 [2]) was “Dose-dependent inhibition”. It also gave an IC50 (EPAC2 [3]) of 2.2 ± 0.3 µM.

With CC(C)(C)c1cc(C(=O)/C(C#N)=N/Nc2cccc(Cl)c2)no1 [ESI-09] the “share of treatment group showing sign of sickness” value (R. australia [4]) was 10%, the “Relative GEF activity, EPAC1-mediated Rap1b-bGDP exchange” value (EPAC1 [2]) was “Dose-dependent inhibition” and the IC50 (EPAC1 [2]) was 10.8 ± 1.6 µM. For the same compound, the “fold more potent on EPAC2 inhibition than on EPAC1” value (EPAC2 [5]; EPAC2 vs EPAC1) was 2.5 fold, the “Relative GEF activity, EPAC2-mediated Rap1b-bGDP exchange” value (EPAC2 [5]) was “Dose-dependent inhibition” and the IC50 (EPAC2 [5]) was 4.4 µM. For the same compound, the “level of serum OVA-specific IgG1 antibodies” value [6] was “significantly higher”, the half-life [7] was 3.5 h and the maximal blood level [7] was 42,520 ng/ml. For the same compound, the “time of maximal blood level” value [7] was 0.5 h, the “pSTAT3 Y705 level” value (pSTAT3 Y705) was “enhanced” and the Plasma leptin (leptin) was “significantly reduced”. For the same compound, the “number of intracellular R. australia” value (R. australia [8]) was “dramatically reduced” and the IC50 (EPAC1 [9]) was 10.8 µM.

Work on CC(C)(C)c1ccc(-c2cc(C(=O)C(C#N)=NNc3ccc(C(F)(F)F)c(Cl)c3)no2)cc1 [Compound 9, N-(3-Chloro-4-(trifluoromethyl)phenyl)-2-oxo-2-(5-(4-(tert-butyl)phenyl)isoxazol-3-yl)acetohydrazonoyl cyanide] yielded an IC50 (EPAC1 [1]; [12]) of 9 ± 3.9 µM.

N#CC(=NNc1cc(Cl)cc(C(F)(F)F)c1)C(=O)c1cc(-c2ccccc2)on1 [Compound 13, N′-(3-Chloro-5-(trifluoromethyl)phenyl)-2-oxo-2-(5-phenylisoxazol-3 yl)acetohydrazonoyl cyanide] gave an IC50 (EPAC1 [1]; Rap 1b-bGDP EPAC1 IC50) of 9.5 ± 1.2 µM.

For N#CC(=NNc1ccc(Cl)c(C(F)(F)F)c1)C(=O)c1noc2ccccc12 [Compound 33, 2-(Benzo[d]isoxazol-3-yl)-N-(4-chloro-3-(trifluoromethyl)phenyl)-2-oxoacetohydrazonoyl cyanide], the IC50 (EPAC1 [1]; [12]) was 2.7 ± 0.3 µM, the “Rap 1b-bGDP EPAC1 IC50” value (EPAC1 [2]; [13]) was “low micromolar range” and the “Relative GEF activity, EPAC1-mediated Rap1b-bGDP exchange” value (EPAC1 [2]; in the presence of 20 μM cAMP, figure) was “Dose-dependent inhibition”. The “Relative GEF activity, EPAC2-mediated Rap1b-bGDP exchange” value (EPAC2 [5]) was “Dose-dependent inhibition” and the IC50 (EPAC2 [3]) was 1.9 µM.

For N#CC(=NNc1cc(C(F)(F)F)cc(C(F)(F)F)c1)C(=O)c1noc2ccccc12 [Compound 36, 2-(Benzo[d]isoxazol-3-yl)-N-(3,5-bis(trifluoromethyl)phenyl)-2-oxoacetohydrazonoyl cyanide], the IC50 (EPAC1 [1]; [12]) was 6.7 ± 0.7 µM.

In the case of Cc1cc(C)c(Nc2ccc(Cl)c(C(F)(F)F)c2)c(C)c1 [MAY0132], the “inhibition against EPAC1” value (EPAC1 [10]) is reported as “no significant inhibition” and the IC50 (EPAC2 [11]) is reported as 0.4 µM.

For CC(C)(C)c1ccc(-c2cc(C(=O)C(C#N)=NNc3cccc(Cl)c3)no2)cc1 [Compound 7, N-(3-Chlorophenyl)-2-(5-(4-(tert-butyl)phenyl)isoxazol-3-yl)-2-oxoacetohydrazonoyl cyanide], the IC50 (EPAC1 [1]; Rap 1b-bGDP EPAC1 IC50) was 8.6 µM.

In the case of COc1ccc(-c2cc(C(=O)C(C#N)=NNc3cccc(Cl)c3)no2)cc1 [Compound 22, N-(3-Chlorophenyl)-2-(5-(4-methoxyphenyl)isoxazol-3-yl)-2-oxoacetohydrazonoyl cyanide], the IC50 (EPAC1 [1]; Rap 1b-bGDP EPAC1 IC50) is reported as 11.4 ± 2.8 µM and the “Relative GEF activity, EPAC1-mediated Rap1b-bGDP exchange” value (EPAC1 [2]) is reported as “Dose-dependent inhibition”.

N#CC(=NNc1ccc(F)c(Cl)c1)C(=O)c1noc2ccccc12 [Compound 35, 2-(Benzo[d]isoxazol-3-yl)-N-(3-chloro-4-fluorophenyl)-2-oxoacetohydrazonoyl cyanide] gave an IC50 (EPAC1 [1]; Rap 1b-bGDP EPAC1 IC50) of 8.5 ± 3.5 µM.

With N#CC(NNc1ccc(C(F)(F)F)c(Cl)c1)C(=O)c1cc(-c2ccccc2)on1 (stereo not shown) [Compound 17b] the “Rap 1b-bGDP EPAC1 IC50” value (EPAC1 [2]) was “low micromolar range” and the IC50 (EPAC1 [2]) was 5.1 ± 0.3 µM.

In the case of N#CC(=NNc1ccc(C(F)(F)F)c(Cl)c1)C(=O)c1noc2ccccc12 [Compound 32, 2-(Benzo[d]isoxazol-3-yl)-N-(3-chloro-4-(trifluoromethyl)phenyl)-2-oxoacetohydrazonoyl cyanide], the IC50 (EPAC1 [1]; [12]) is reported as 3 ± 0.3 µM, the “Rap 1b-bGDP EPAC1 IC50” value (EPAC1 [2]; [13]) is reported as “low micromolar range” and the IC50 (EPAC2 [3]) is reported as 2.2 ± 0.4 µM.

Compound N#CC(=NNc1cc(Cl)cc(C(F)(F)F)c1)C(=O)c1noc2ccccc12 [Compound 31, 2-(Benzo[d]isoxazol-3-yl)-N-(3-chloro-5-(trifluoromethyl)phenyl)-2-oxoacetohydrazonoyl cyanide] has an IC50 (EPAC1 [1]; [12]) of 4.6 ± 0.8 µM and an IC50 (EPAC2 [3]) of 2.2 ± 0.2 µM.

For COc1ccc(C(=O)/C(C#N)=N/Nc2cc(Cl)cc(Cl)c2)cc1OC [ZL0631, (E)-N-(3,5-dichlorophenyl)-2-(3,4-dimethoxyphenyl)-2-oxoacetohydrazonoyl cyanide], the IC50 (EPAC1 [1]; [12]) was greater than 300 µM.

CC(C)(C)c1ccc(-c2cc(C(=O)C(C#N)=NNc3cc(C(F)(F)F)cc(C(F)(F)F)c3)no2)cc1 [Compound 11, N-(3,5-Bis(trifluoromethyl)phenyl)-2-(5-(4-(tert-butyl)phenyl)isoxazol-3-yl)-2-oxoacetohydrazonoyl cyanide] showed an IC50 (EPAC1 [1]; [12]) of 11.9 ± 6 µM.

In the case of CC(C)(C)c1ccc(-c2cc(C(=O)C(C#N)=NNc3ccc(Cl)c(C(F)(F)F)c3)no2)cc1 [Compound 10, N-(4-Chloro-3-(trifluoromethyl)phenyl)-2-oxo-2-(5-(4-(tert-butyl)phenyl)isoxazol-3-yl)acetohydrazonoyl cyanide], the IC50 (EPAC1 [1]; [12]) is reported as 7.3 µM, the “Rap 1b-bGDP EPAC1 IC50” value (EPAC1 [2]; [13]) is reported as “low micromolar range” and the “Relative GEF activity, EPAC2-mediated Rap1b-bGDP exchange” value (EPAC2 [5]) is reported as “Dose-dependent inhibition”. For the same compound, the IC50 (EPAC2 [3]) was 2.2 ± 0.3 µM.

With N#CC(=NNc1cc(C(F)(F)F)cc(C(F)(F)F)c1)C(=O)c1cc(-c2ccccc2)on1 [Compound 15, N-(3,5-Bis(trifluoromethyl)phenyl)-2-oxo-2-(5-phenylisoxazol-3-yl)acetohydrazonoyl cyanide] the IC50 (EPAC1 [1]; Rap 1b-bGDP EPAC1 IC50) was 7.2 ± 0.7 µM and the IC50 (EPAC2 [3]) was 3.3 ± 0.8 µM.

With N#CC(=NNc1ccc(Cl)c(C(F)(F)F)c1)C(=O)c1cc(-c2ccco2)on1 [Compound 27, N-(4-Chloro-3-(trifluoromethyl)phenyl)-2-(5-(furan-2-yl)isoxazol-3-yl)-2-oxoacetohydrazonoyl cyanide] the IC50 (EPAC1 [1]; [12]) was 4.2 ± 0.9 µM, the “Relative GEF activity, EPAC2-mediated Rap1b-bGDP exchange” value (EPAC2 [5]) was “Dose-dependent inhibition” and the IC50 (EPAC2 [3]) was 2.3 ± 0.2 µM.

Work on N#C/C(=N\Nc1cc(Cl)cc(Cl)c1)C(=O)c1ccc(Cl)cc1 [ZL0491, (E)-2-(4-chlorophenyl)-N-(3,5-dichlorophenyl)-2-oxoacetohydrazonoyl cyanide] yielded an IC50 (EPAC1 [1]; [12]) greater than 300 µM.

Work on N#C/C(=N\Nc1cc(Cl)cc(Cl)c1)C(=O)c1cccc(Cl)c1 [ZL0546, (E)-2-(3-chlorophenyl)-N-(3,5-dichlorophenyl)-2-oxoacetohydrazonoyl cyanide] yielded an IC50 (EPAC1 [1]; [12]) greater than 300 µM.

N#CC(=NNc1cccc(Cl)c1)C(=O)c1noc2ccccc12 [Compound 30, 2-(Benzo[d]isoxazol-3-yl)-N-(3-chlorophenyl)-2-oxoacetohydrazonoyl cyanide] showed an IC50 (EPAC1 [1]; Rap 1b-bGDP EPAC1 IC50) of 13.2 µM.

In the case of COc1ccc(-c2cc(C(=O)C(C#N)=NNc3ccc(Cl)c(C(F)(F)F)c3)no2)cc1 [Compound 23, N-(4-Chloro-3-(trifluoromethyl)phenyl)-2-oxo-2-(5-(4-methoxyphenyl)isoxazol-3-yl)acetohydrazonoyl cyanide], the IC50 (EPAC1 [1]; [12]) is reported as less than 8 µM and the IC50 (EPAC2 [3]) is reported as 4.5 ± 1 µM.

Work on N#CC(=NNc1cc(F)cc(Cl)c1)C(=O)c1noc2ccccc12 [Compound 34, 2-(Benzo[d]isoxazol-3-yl)-N-(3-chloro-5-fluorophenyl)-2-oxoacetohydrazonoyl cyanide] yielded an IC50 (EPAC1 [1]; Rap 1b-bGDP EPAC1 IC50) of 18.9 ± 4.9 µM.

For N#CC(=NNc1ccc(Cl)c(C(F)(F)F)c1)C(=O)c1cc(-c2ccc(Cl)cc2)on1 [Compound 20, N-(4-Chloro-3-(trifluoromethyl)phenyl)-2-oxo-2-(5-(4-chlorophenyl)isoxazol-3-yl)acetohydrazonoyl cyanide], the IC50 (EPAC1 [1]; Rap 1b-bGDP EPAC1 IC50) was 7.8 ± 2.1 µM.

From patent US11124489B2, “EPAC antagonists” (priority 2017, dated 2021)
